Data taken from ChEMBL document CHEMBL1201862, “PubChem BioAssay data set” (2004).
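Interpolation was linear, between the two tested concentrations surrounding the appropriate level; five concentrations were tested over 48 hours in 96-well plates. Here, GI50 denotes the concentration required for 50% inhibition of growth.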 Calls of active or inactive are those of the source. No stated cut-off is given here; in the data, active = GI50 up to about 1.1 µM and inactive = higher.

How the values were obtained:
Assay in all cases: DTP human tumour cell line panel, 48 h
RPMI-8226 = tested on: RPMI-8226
SR = tested on: SR
UACC-257 = tested on: UACC-257
EKVX = tested on: EKVX
KM12 = tested on: KM12
Malme-3M = tested on: Malme-3M
SW-620 = tested on: SW-620
CCRF-CEM = tested on: CCRF-CEM
UO-31 = tested on: UO-31
NCI-H460 = tested on: NCI-H460
M14 = tested on: M14
OVCAR-3 = tested on: OVCAR-3
LOX IMVI = tested on: LOX IMVI
SF-539 = tested on: SF-539
SF-295 = tested on: SF-295
IGROV-1 = tested on: IGROV-1
SF-268 = tested on: SF-268
MCF7 = tested on: MCF7
A549 = tested on: A549
HCT-116 = tested on: HCT-116

| SMILES | GI50 (RPMI-8226) | GI50 (SR) | GI50 (UACC-257) | GI50 (EKVX) | GI50 (KM12) | GI50 (Malme-3M) | GI50 (SW-620) | GI50 (CCRF-CEM) | GI50 (UO-31) | GI50 (NCI-H460) | GI50 (M14) | GI50 (OVCAR-3) | GI50 (LOX IMVI) | GI50 (SF-539) | GI50 (SF-295) | GI50 (IGROV-1) | GI50 (SF-268) | GI50 (MCF7) | GI50 (A549) | GI50 (HCT-116) |
| --- | --- | --- | --- | --- | --- | --- | --- | --- | --- | --- | --- | --- | --- | --- | --- | --- | --- | --- | --- | --- |
| CN(C)c1ccc(C=c2c3ccccc3n3c2c2ccccc2[n+]3C)cc1 | 0.138 µM (active) | 0.199 µM (active) | 0.33 µM (active) | 2.65 µM (inactive) | 1.01 µM (active) | 0.392 µM (active) | 0.164 µM (active) | 0.15 µM (active) | 0.836 µM (active) | 2.84 µM (inactive) | 0.493 µM (active) | 0.239 µM (active) | 0.597 µM (active) | 0.513 µM (active) | 1.52 µM (inactive) | 0.82 µM (active) | 0.425 µM (active) | 0.822 µM (active) | 3.73 µM (inactive) | 0.354 µM (active) |
| O=C1/C(=C/c2cccc([N+](=O)[O-])c2)N=C(c2ccccc2)N1c1nc2ccc(Sc3ccccc3)cc2[nH]1 | 33.3 µM (inactive) | 24.8 µM (inactive) | 42 µM (inactive) | 62.8 µM (inactive) | 31.8 µM (inactive) | 63.1 µM (inactive) | 37.2 µM (inactive) |  | 3.45 µM (inactive) | 25 µM (inactive) | 38.9 µM (inactive) |  | 38.5 µM (inactive) | 57.4 µM (inactive) | 35.7 µM (inactive) | 37.8 µM (inactive) | 39 µM (inactive) | 31.5 µM (inactive) | 55.2 µM (inactive) | 41.6 µM (inactive) |
| NC(CCCCNC(=O)C(Cc1ccccc1)NC(=O)OCc1ccccc1)C(=O)NC(CCCCNC(=O)C(Cc1ccccc1)NC(=O)OCc1ccccc1)C(=O)NC(CCCCNC(=O)C(Cc1ccccc1)NC(=O)OCc1ccccc1)C(=O)NC(CCCCNC(=O)C(Cc1ccccc1)NC(=O)OCc1ccccc1)C(=O)NC(CCCCNC(=O)C(Cc1ccccc1)NC(=O)OCc1ccccc1)C(=O)NC(CCCCNC(=O)C(Cc1ccccc1)NC(=O)OCc1ccccc1)C(=O)O (stereo unspecified) | > 100 µM (inactive) | > 100 µM (inactive) | > 100 µM (inactive) |  |  | > 100 µM (inactive) | > 100 µM (inactive) | > 100 µM (inactive) | > 100 µM (inactive) | > 100 µM (inactive) | > 100 µM (inactive) | > 100 µM (inactive) | > 100 µM (inactive) |  |  | > 100 µM (inactive) | > 100 µM (inactive) | > 100 µM (inactive) | > 100 µM (inactive) | > 100 µM (inactive) |
| CO[C@@H]1C[C@H]2[C@@H]3CC[C@H]([C@H](C)CO)[C@@]3(C)CC[C@@H]2[C@@]2(C)CC[C@H]3C[C@]312 | 18.3 µM (inactive) | 37.5 µM (inactive) | 35.6 µM (inactive) | 12.5 µM (inactive) | 15.9 µM (inactive) | > 100 µM (inactive) | 70.3 µM (inactive) |  | 53.1 µM (inactive) | 26.7 µM (inactive) | 32.4 µM (inactive) | > 100 µM (inactive) | 18.8 µM (inactive) | 45.7 µM (inactive) | 28.5 µM (inactive) | 84.7 µM (inactive) | 35.7 µM (inactive) | 19.2 µM (inactive) | 69 µM (inactive) | 30.2 µM (inactive) |
| C=C1CC2CCCC12C=O (stereo unspecified) | > 10 µM (inactive) | > 10 µM (inactive) | > 10 µM (inactive) |  | > 10 µM (inactive) | > 10 µM (inactive) | > 10 µM (inactive) | > 10 µM (inactive) |  |  | > 10 µM (inactive) | > 10 µM (inactive) | > 10 µM (inactive) | > 10 µM (inactive) | > 10 µM (inactive) | > 10 µM (inactive) | > 10 µM (inactive) | > 10 µM (inactive) | > 10 µM (inactive) | > 10 µM (inactive) |
| CN(CCNC(=O)c1c[nH]c2c1Cc1ccccc1-2)CCNC(=O)c1c[nH]c2c1Cc1ccccc1-2 | 26.5 µM (inactive) | 29.6 µM (inactive) | 43.8 µM (inactive) | 37.1 µM (inactive) | 33.3 µM (inactive) | 82.8 µM (inactive) | 39.4 µM (inactive) |  | 28.6 µM (inactive) | 35.1 µM (inactive) | 30.8 µM (inactive) | 21 µM (inactive) | 29.9 µM (inactive) | 19.5 µM (inactive) | 26.9 µM (inactive) | 27.9 µM (inactive) | 32 µM (inactive) | 22.9 µM (inactive) | 43.2 µM (inactive) | 36.1 µM (inactive) |
| C=C(Br)CN(C#N)CC(=C)Br | > 100 µM (inactive) | > 100 µM (inactive) | > 100 µM (inactive) | > 100 µM (inactive) | > 100 µM (inactive) | > 100 µM (inactive) | > 100 µM (inactive) | > 100 µM (inactive) | > 100 µM (inactive) | > 100 µM (inactive) | > 100 µM (inactive) | > 100 µM (inactive) | > 100 µM (inactive) | > 100 µM (inactive) | > 100 µM (inactive) | > 100 µM (inactive) | > 100 µM (inactive) | > 100 µM (inactive) | > 100 µM (inactive) | > 100 µM (inactive) |
| O=C1CC(CC(O)[C@@H]2CCCC[C@@H]2O)CC(=O)N1c1ccccc1 (stereo partly specified) | > 100 µM (inactive) | > 100 µM (inactive) | > 100 µM (inactive) |  | > 100 µM (inactive) | > 100 µM (inactive) | > 100 µM (inactive) | > 100 µM (inactive) | > 100 µM (inactive) | > 100 µM (inactive) | > 100 µM (inactive) | > 100 µM (inactive) | > 100 µM (inactive) | > 100 µM (inactive) | > 100 µM (inactive) | > 100 µM (inactive) | > 100 µM (inactive) | > 100 µM (inactive) | > 100 µM (inactive) | > 100 µM (inactive) |
| Cc1ccc(S(=O)(=O)N(CCN)c2cc3c4c(c2)Oc2cccc5c2C4c2c(cccc2O3)O5)cc1 | 30.8 µM (inactive) | 0.724 µM (active) | 30.5 µM (inactive) | 13.6 µM (inactive) | > 100 µM (inactive) | 10.5 µM (inactive) | 36.5 µM (inactive) | 22.7 µM (inactive) | > 100 µM (inactive) | > 100 µM (inactive) | 25.6 µM (inactive) | 20 µM (inactive) | 23.2 µM (inactive) | 18.8 µM (inactive) | 21.9 µM (inactive) | 11 µM (inactive) | 14.4 µM (inactive) | 20.7 µM (inactive) | 25.7 µM (inactive) | 16.3 µM (inactive) |
| CCOC(=O)C1=C(O)C2C3CC4C2C(O)=C(C(=O)OCC)C2C1C3C42 (stereo unspecified) | 84.5 µM (inactive) | 45.3 µM (inactive) | > 100 µM (inactive) | > 100 µM (inactive) | > 100 µM (inactive) | > 100 µM (inactive) | > 100 µM (inactive) | 42.7 µM (inactive) | > 100 µM (inactive) | > 100 µM (inactive) | > 100 µM (inactive) | > 100 µM (inactive) | 98.6 µM (inactive) | > 100 µM (inactive) | > 100 µM (inactive) | > 100 µM (inactive) | > 100 µM (inactive) | > 100 µM (inactive) | > 100 µM (inactive) | > 100 µM (inactive) |
| CCC(C)[C@@H](NC1=C(Cl)C(=O)c2c(O)ccc(O)c2C1=O)C(=O)OC (stereo partly specified) | 2.28 µM (inactive) | 1.06 µM (active) | 2.18 µM (inactive) | 9.23 µM (inactive) | 3.92 µM (inactive) | 1.8 µM (inactive) | 4.46 µM (inactive) | 0.579 µM (active) |  | 2.64 µM (inactive) | 2.31 µM (inactive) | 2.79 µM (inactive) | 3.21 µM (inactive) | 4.08 µM (inactive) | 4.92 µM (inactive) | 3.95 µM (inactive) | 3.7 µM (inactive) | 3.61 µM (inactive) | 3.89 µM (inactive) | 2.4 µM (inactive) |
| CC(NNC(=O)c1cc[n+]([BH2-]C#N)cc1)c1cccc(F)c1 (stereo unspecified) | > 100 µM (inactive) | > 100 µM (inactive) | > 100 µM (inactive) | > 100 µM (inactive) | > 100 µM (inactive) | > 100 µM (inactive) | > 100 µM (inactive) | > 100 µM (inactive) | > 100 µM (inactive) | > 100 µM (inactive) | > 100 µM (inactive) | > 100 µM (inactive) | > 100 µM (inactive) | > 100 µM (inactive) | > 100 µM (inactive) | > 100 µM (inactive) | > 100 µM (inactive) | > 100 µM (inactive) | > 100 µM (inactive) | > 100 µM (inactive) |
| CCCC1CCC(=C2C(=O)CCC2=O)O1 (stereo unspecified) | > 100 µM (inactive) | > 100 µM (inactive) | > 100 µM (inactive) | > 100 µM (inactive) | > 100 µM (inactive) |  | > 100 µM (inactive) | > 100 µM (inactive) | > 100 µM (inactive) | > 100 µM (inactive) | > 100 µM (inactive) | > 100 µM (inactive) | > 100 µM (inactive) | > 100 µM (inactive) | > 100 µM (inactive) | > 100 µM (inactive) | > 100 µM (inactive) | > 100 µM (inactive) | > 100 µM (inactive) | > 100 µM (inactive) |
| C=C1CC(Cn2cc(C)c(=O)[nH]c2=O)(c2ccc(-c3ccccc3)cc2)OC1=O (stereo unspecified) | 0.385 µM (active) | 0.82 µM (active) | 1.44 µM (inactive) | 6.62 µM (inactive) | 2.31 µM (inactive) | 2.11 µM (inactive) | 0.546 µM (active) | 0.379 µM (active) | 5.32 µM (inactive) | 6.95 µM (inactive) | 1.1 µM (active) | 1.21 µM (inactive) | 0.889 µM (active) | 2.07 µM (inactive) | 8.85 µM (inactive) | 1.82 µM (inactive) | 2.26 µM (inactive) | 1.51 µM (inactive) | 8.49 µM (inactive) | 0.596 µM (active) |
